Source: ChEMBL document CHEMBL3856240, “Structural determinants of diphenethylamines for interaction with the κ opioid receptor: Synthesis, pharmacology and molecular modeling studies” (Bioorg Med Chem Lett, 2016)
pEC50, pKi: −log10 of the molar value.

Assays:
[1] = biological target: T1, Kappa-type opioid receptor (Homo sapiens, UniProt P41145); details: CHO
Description: Antagonist activity at human kappa opioid receptor expressed in CHO cell membranes assessed as inhibition of U69,593 stimulated [35S]GTPgammaS binding after 60 mins

[2] = biological target: T1, Kappa-type opioid receptor; experiment: Displacement of [3H]U69,593 from human kappa opioid receptor expressed in CHO cell membranes after 60 mins by liquid scintillation counting
[3] = biological target: Delta-type opioid receptor (Homo sapiens, UniProt P41143); experiment: Displacement of [3H]pCl-DPDPE from human delta opioid receptor expressed in CHO cell membranes after 60 mins by liquid scintillation counting
Mu-type opioid receptor = Mu-type opioid receptor (Homo sapiens, UniProt P35372); experiment: Displacement of [3H]DAMGO from human mu opioid receptor expressed in CHO cell membranes after 60 mins by liquid scintillation counting
[4] = biological target: T1, Kappa-type opioid receptor; experiment: Agonist activity at human kappa opioid receptor expressed in CHO cell membranes after 60 mins by [35S]GTPgammaS assay
[5] = biological target: T1, Kappa-type opioid receptor; experiment: Agonist activity at human kappa opioid receptor expressed in CHO cell membranes after 60 mins by [35S]GTPgammaS assay relative to U69,593; details: 1 h, read-out: %max

T1 sequence (P41145 whole entry): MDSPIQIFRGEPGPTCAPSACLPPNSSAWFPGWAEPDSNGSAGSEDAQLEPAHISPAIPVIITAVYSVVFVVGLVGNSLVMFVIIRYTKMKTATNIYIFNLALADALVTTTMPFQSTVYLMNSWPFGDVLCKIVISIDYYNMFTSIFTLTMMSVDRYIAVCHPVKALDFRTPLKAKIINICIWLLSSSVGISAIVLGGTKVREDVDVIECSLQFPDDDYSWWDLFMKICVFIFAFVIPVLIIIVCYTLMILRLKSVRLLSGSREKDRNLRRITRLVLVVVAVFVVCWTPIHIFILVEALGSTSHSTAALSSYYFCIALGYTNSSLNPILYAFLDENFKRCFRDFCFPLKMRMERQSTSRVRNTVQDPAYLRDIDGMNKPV
Sequence of Mu-type opioid receptor (P35372 whole entry): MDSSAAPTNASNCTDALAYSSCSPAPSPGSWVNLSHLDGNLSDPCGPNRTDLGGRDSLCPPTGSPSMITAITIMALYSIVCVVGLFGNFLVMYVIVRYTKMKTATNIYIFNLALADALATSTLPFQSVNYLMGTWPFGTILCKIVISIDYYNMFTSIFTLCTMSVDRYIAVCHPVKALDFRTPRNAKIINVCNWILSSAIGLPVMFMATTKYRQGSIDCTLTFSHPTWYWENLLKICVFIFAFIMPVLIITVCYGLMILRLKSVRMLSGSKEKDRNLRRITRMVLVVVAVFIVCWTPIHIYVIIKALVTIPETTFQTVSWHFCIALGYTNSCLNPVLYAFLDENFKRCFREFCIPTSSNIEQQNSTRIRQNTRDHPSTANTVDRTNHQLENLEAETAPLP
Sequence of Delta-type opioid receptor (P41143 whole entry): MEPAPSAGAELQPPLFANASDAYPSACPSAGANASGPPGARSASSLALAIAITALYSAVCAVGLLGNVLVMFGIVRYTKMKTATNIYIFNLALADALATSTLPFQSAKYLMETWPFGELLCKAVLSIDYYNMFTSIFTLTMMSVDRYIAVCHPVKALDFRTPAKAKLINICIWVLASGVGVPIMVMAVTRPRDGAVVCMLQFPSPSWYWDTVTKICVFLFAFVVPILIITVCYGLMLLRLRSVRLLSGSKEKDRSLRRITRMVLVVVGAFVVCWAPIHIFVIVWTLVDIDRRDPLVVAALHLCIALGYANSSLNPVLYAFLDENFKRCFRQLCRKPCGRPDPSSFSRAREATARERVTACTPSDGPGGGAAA

SMILES: Oc1cccc(CCN(CCc2ccccc2)CCc2ccccc2)c1
- Ke [1]: 1310 nM
- pKi [2]: 6.68
- pKi [3]: < 5.00
- pKi (Mu-type opioid receptor): < 5.00
- pEC50 [4]: < 5.00

SMILES: Oc1ccc(CCN(CCc2ccccc2)CC2CC2)cc1
- Ke [1]: 32.1 nM
- pKi [2]: 6.66
- pKi [3]: 5.66
- pKi (Mu-type opioid receptor): 5.76
- pEC50 [4]: < 5.00

SMILES: Oc1ccc(CCN(CCc2ccccc2)CC2CCC2)cc1
- pKi [2]: 7.44
- pKi [3]: 5.67
- pKi (Mu-type opioid receptor): 6.14
- Emax [5]: 43.8%
- pEC50 [4]: 6.96
